Data reported in ChEMBL document CHEMBL1201862, “PubChem BioAssay data set” (2004).
The source made the active and inactive calls.

Tests used:
[1] = microbe, parasite or virus in culture; type: functional; details: Mycobacterium tuberculosis
H9c2 = assay: cells; type: functional, cell-based; details: Rattus norvegicus, H9c2, Myocardium;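 further: confirmatory concentration-response retest of ultra-high-throughput screening hits for modulation of myocardial damage; cell death induced by hydrogen peroxide oxidative stress; compound pretreatment for 60 min then peroxide exposure for 2 h; potency is for protecting the cells against peroxide damage rather than for killing them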
[2] = target: T1, Corticotropin-releasing factor receptor 2/Corticotropin-releasing factor-binding protein (Homo sapiens, UniProt P24387+Q13324); assay: Dose Response confirmation of uHTS hits for small molecule antagonists of the CRF-binding protein and CRF-R2 receptor complex.; type: functional; details: read-out: IC50_Mean
T1 sequence (Q13324 whole entry): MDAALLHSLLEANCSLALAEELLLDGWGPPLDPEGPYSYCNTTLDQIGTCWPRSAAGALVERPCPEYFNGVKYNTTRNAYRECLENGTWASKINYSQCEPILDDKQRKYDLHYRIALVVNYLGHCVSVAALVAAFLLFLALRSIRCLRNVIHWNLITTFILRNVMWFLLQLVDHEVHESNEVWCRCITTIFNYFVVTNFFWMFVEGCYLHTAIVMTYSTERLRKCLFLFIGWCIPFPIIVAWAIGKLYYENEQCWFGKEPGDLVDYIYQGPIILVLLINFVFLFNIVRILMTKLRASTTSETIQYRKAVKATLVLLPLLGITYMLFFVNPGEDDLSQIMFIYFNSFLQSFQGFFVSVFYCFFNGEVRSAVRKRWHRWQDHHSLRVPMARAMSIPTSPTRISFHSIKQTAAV
T1 sequence (P24387 whole entry): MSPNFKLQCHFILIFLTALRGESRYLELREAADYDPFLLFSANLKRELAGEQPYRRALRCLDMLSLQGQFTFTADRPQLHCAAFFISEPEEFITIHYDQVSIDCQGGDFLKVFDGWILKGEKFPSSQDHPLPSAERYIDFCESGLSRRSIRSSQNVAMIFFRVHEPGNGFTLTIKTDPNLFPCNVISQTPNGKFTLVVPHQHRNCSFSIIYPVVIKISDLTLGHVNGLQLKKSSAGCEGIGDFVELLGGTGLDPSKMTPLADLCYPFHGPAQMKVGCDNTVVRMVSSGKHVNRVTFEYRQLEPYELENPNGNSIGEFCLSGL

[3] = target: T1, Corticotropin-releasing factor receptor 2/Corticotropin-releasing factor-binding protein; assay: activators of CRF receptor 2 with binding protein – uHTS hits, confirmation (AID 602473); type: functional; details: read-out: EC50_Mean
[4] = target: Glucose-6-phosphate 1-dehydrogenase (Homo sapiens, UniProt P11413); assay: human G6PD enzyme inhibitors, dose response, selectivity assay for P. falciparum G6PD inhibitor project, biochemical, fluorescence (AID 504792); type: functional
Glucose-6-phosphate 1-dehydrogenase, sequence (P11413 whole entry): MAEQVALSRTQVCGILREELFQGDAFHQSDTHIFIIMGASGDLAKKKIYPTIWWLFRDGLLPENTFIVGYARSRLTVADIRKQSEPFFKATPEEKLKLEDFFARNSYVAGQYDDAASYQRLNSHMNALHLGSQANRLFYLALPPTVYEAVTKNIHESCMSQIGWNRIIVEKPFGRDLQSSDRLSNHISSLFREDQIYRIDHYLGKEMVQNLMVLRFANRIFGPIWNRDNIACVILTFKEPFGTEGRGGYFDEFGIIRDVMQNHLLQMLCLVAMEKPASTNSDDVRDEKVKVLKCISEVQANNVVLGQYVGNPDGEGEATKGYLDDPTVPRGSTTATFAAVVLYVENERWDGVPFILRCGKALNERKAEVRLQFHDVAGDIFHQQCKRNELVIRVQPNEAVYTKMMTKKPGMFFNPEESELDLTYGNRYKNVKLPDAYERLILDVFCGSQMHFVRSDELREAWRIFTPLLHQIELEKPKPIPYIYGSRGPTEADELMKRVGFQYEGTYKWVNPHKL

[5] = target: FAD-linked sulfhydryl oxidase ALR (Homo sapiens, UniProt P55789); assay: inhibitors of human ALR sulfhydryl oxidase, dose response, biochemical, H2O2 detection, luminescence, cherry-pick (AID 493248)
FAD-linked sulfhydryl oxidase ALR, sequence (P55789 whole entry): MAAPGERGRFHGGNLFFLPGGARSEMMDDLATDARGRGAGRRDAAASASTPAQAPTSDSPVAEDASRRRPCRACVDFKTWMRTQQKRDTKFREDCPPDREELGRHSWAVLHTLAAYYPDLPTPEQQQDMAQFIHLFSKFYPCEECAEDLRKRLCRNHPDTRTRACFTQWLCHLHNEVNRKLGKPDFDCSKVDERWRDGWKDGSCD

Cytochrome P450 3A4 = Cytochrome P450 3A4 (Homo sapiens, UniProt P08684);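 further: CYP3A4 tested as one member of a cytochrome P450 panel screen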
Cytochrome P450 3A4, sequence (P08684 whole entry): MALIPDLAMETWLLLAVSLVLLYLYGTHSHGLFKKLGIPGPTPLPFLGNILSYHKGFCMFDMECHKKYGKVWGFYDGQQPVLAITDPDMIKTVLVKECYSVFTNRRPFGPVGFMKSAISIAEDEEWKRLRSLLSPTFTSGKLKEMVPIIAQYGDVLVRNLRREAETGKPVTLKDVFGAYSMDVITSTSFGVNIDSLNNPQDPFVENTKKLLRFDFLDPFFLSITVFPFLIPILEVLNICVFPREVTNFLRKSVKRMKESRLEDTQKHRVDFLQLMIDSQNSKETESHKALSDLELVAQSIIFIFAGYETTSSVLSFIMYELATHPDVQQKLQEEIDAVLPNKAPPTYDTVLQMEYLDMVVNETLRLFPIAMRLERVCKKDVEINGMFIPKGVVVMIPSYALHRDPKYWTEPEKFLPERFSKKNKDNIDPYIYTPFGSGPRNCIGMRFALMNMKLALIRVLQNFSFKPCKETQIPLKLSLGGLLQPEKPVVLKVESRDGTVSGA

[6] = inhibitors of intracellular T. cruzi replication, confirmation, NIH3T3 host cells, beta-gal luminescence (AID 2044); type: functional, cell-based;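 further: intracellular parasites grown in NIH/3T3 mouse fibroblasts as host cells; luminescent beta-galactosidase reporter signal from transgenic T. cruzi replicating inside host cells; inhibitors lower the luminescence signal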
[7] = cytotoxicity toward NIH3T3 fibroblasts, dose response, counter-screen, cell-based, ATP luminescence, mouse fibroblasts (AID 2010); type: functional;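 further: cells exposed to compound for about 90 hours before reading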
[8] = target: DNA dC->dU-editing enzyme APOBEC-3G (Homo sapiens, UniProt Q9HC16); assay: Dose Response confirmation of small molecule APOBEC3G DNA Deaminase Inhibitors via a fluorescence-based single-stranded DNA deaminase assay. [Related pubchem assays (depositor defined):AID493012, AID493028]; type: functional
DNA dC->dU-editing enzyme APOBEC-3G, sequence (Q9HC16 whole entry, the tested form may be a part): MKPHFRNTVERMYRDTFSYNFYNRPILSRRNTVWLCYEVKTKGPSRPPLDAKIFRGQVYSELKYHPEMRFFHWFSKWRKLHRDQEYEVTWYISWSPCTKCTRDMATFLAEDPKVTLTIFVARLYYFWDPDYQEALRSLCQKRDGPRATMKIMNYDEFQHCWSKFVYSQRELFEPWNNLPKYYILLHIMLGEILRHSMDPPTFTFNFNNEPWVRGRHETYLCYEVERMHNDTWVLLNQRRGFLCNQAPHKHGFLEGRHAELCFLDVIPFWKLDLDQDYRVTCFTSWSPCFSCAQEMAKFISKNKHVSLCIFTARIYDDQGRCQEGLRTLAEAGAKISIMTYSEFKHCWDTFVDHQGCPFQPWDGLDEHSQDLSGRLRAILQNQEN

Fatty acid synthase = Fatty acid synthase (Homo sapiens, UniProt P49327); assay: FAS thioesterase domain inhibitors, dose response, biochemical, kinetic fluorescence intensity (AID 624326); type: functional;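 further: rate of fluorescence rise from hydrolysis of a fluorogenic O-methyl fluorescein ester substrate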
Fatty acid synthase, sequence (P49327 whole entry, the tested form may be a part): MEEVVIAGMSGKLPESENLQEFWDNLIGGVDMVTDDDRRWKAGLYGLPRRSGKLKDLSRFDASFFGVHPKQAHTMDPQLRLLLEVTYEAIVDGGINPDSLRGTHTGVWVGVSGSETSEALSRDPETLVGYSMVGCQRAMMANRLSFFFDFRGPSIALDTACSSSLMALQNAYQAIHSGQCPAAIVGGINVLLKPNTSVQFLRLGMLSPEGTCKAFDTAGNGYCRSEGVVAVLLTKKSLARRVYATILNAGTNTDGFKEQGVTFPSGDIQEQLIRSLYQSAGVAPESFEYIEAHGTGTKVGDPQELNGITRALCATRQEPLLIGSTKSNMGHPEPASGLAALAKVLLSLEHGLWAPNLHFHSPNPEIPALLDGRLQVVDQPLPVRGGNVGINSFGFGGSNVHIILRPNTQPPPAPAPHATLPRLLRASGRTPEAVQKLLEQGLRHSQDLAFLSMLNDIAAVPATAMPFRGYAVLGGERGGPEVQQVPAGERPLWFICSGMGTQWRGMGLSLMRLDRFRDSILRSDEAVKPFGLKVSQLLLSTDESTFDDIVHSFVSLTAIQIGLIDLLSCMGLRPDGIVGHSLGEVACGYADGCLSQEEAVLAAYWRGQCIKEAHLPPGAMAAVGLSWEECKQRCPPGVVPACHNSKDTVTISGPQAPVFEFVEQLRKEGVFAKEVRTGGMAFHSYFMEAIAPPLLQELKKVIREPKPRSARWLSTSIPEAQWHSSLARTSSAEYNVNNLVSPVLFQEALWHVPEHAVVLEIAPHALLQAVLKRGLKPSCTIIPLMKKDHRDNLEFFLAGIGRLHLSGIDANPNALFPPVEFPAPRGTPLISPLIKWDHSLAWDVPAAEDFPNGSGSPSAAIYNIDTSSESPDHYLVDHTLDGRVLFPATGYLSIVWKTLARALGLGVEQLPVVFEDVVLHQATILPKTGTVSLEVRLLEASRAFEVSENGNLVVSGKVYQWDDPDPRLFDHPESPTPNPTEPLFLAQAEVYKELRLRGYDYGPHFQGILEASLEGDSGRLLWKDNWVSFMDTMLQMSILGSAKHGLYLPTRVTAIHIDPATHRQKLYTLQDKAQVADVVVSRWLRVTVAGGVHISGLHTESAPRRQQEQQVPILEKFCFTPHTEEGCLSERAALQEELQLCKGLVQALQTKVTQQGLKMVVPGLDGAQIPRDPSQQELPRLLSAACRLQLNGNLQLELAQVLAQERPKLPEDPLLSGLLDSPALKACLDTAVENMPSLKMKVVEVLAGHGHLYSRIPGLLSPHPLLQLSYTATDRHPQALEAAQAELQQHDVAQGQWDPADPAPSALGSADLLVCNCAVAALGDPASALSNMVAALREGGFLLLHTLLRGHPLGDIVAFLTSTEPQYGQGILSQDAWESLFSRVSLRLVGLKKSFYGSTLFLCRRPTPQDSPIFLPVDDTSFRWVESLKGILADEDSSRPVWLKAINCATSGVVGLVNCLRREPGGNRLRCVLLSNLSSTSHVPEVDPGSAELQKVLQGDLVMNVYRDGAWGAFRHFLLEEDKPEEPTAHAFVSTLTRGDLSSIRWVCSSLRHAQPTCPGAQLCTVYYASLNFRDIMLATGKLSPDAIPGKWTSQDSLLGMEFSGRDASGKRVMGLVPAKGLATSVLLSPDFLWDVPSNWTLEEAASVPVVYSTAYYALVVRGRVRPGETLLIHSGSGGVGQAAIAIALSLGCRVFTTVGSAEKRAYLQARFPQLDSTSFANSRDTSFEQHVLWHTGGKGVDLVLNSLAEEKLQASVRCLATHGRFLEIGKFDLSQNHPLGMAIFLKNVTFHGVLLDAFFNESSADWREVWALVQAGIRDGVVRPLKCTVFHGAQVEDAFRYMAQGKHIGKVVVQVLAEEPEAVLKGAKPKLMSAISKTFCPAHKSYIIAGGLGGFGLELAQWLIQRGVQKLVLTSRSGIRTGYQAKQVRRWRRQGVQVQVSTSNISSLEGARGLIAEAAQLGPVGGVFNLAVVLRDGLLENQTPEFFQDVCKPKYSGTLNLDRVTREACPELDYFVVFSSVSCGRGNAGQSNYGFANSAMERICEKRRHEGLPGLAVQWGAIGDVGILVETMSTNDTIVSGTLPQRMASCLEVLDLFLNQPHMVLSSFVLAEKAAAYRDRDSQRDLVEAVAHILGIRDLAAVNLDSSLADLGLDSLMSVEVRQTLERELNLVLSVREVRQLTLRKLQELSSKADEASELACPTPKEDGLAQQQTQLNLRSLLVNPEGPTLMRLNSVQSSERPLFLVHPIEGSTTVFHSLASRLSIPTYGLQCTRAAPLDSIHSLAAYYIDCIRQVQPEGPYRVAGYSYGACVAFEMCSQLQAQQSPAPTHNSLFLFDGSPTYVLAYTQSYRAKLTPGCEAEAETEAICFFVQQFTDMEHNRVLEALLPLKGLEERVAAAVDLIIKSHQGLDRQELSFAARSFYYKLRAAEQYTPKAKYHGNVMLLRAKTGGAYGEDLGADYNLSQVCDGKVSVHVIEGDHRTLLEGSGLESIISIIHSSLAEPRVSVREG

[9] = Luminescence Cell-Based Dose Retest to Confirm Inhibitors of Cancer Stem Cells. [Related pubchem assays (depositor defined):AID2717, AID2721]; type: functional; details: Homo sapiens
[10] = inhibitors of firefly luciferase expression or activity, dose response, H4 neuroglioma cells, luminescence (AID 1990); type: functional, cell-based
[11] = Luminescence Cell-Based Dose Response HTS to Identify Inhibitors of 5'UTR Stem-Loop Driven Prion Protein mRNA Translation in H4 Neuroglioblastoma Cells. [Related pubchem assays: 1827 (Project Summary), 1813 (Primary HTS)]; type: functional
[12] = inhibitors of SNCA 5'UTR-driven reporter translation, confirmation, H4 neuroglioma cells, luminescence (AID 1988); type: functional, cell-based
[13] = HEp-2 cell cytotoxicity, dose response, cytotoxicity control for RSV inhibitor project, HTS (AID 2410); type: functional; details: human respiratory syncytial virus
[14] = intracellular Trypanosoma cruzi inhibitors in host cells – cell-based, plate reader, cherry-pick samples, set 3, dose response (AID 651818); type: functional;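 further: compounds incubated with infected cells for about four days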
[15] = target: Induced myeloid leukemia cell differentiation protein Mcl-1 (Homo sapiens, UniProt Q07820); type: functional
Induced myeloid leukemia cell differentiation protein Mcl-1, sequence (Q07820 whole entry): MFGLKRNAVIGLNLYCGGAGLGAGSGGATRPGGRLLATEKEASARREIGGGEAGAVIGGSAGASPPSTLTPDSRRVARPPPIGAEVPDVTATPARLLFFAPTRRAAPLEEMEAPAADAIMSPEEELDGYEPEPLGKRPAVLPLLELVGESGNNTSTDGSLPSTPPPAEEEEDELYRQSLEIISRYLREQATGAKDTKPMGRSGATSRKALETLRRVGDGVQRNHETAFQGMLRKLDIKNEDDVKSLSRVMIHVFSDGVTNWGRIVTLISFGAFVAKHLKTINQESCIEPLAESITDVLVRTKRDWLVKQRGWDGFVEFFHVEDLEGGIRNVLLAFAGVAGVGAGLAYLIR

BJ [16] = assay: cytotoxicity toward BJ-TERT fibroblasts, dose response, cell-based, RAS-independent, luminescence (AID 1933); type: functional; details: Homo sapiens
BJ [17] = assay: cells; type: functional, cell-based; details: Homo sapiens
BJ [18] = assay: cytotoxicity toward BJ-TERT-LT-ST fibroblasts, dose response, cell-based, RAS-independent, luminescence (AID 1935); type: functional; details: Homo sapiens;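 further: BJ fibroblasts immortalized with TERT plus LT and ST oncogenes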
[19] = cytotoxicity toward DRD oncogenic fibroblasts, dose response, cell-based, non-viral oncogenic, luminescence (AID 1934); type: functional; details: Homo sapiens
[20] = target: Peroxisome proliferator-activated receptor gamma/Nuclear receptor coactivator 1 (Homo sapiens, UniProt P37231); assay: (§1) TR-FRET dose response biochemical High Throughput Screening assay for agonists of the steroid receptor coactivator 1 (SRC-1) recruitment by the peroxisome proliferator-activated receptor gamma (PPAR gamma): non-selective agonists. [Related pubchem assays (depositor defined):AID1300, AID1808, AID504735, AID631]; type: protein assay
[21] = target: Peroxisome proliferator-activated receptor gamma/Nuclear receptor coactivator 3 (Homo sapiens, UniProt P37231); assay: as §1, with “3 (SRC-3)” for “1 (SRC-1)”, “assays: 1301 (Confirmation screen.), 1048 (Primary screen.)]” for “assays (depositor defined):AID1300, AID1808, AID504735, AID631]”; type: functional
[22] = target: Peroxisome proliferator-activated receptor gamma/Nuclear receptor coactivator 2 (Homo sapiens, UniProt P37231); assay: TR-FRET dose response biochemical High Throughput Screening assay for agonists of the steroid receptor coactivator 2 (SRC-2) recruitment by the peroxisome proliferator-activated receptor gamma (PPAR gamma): non-selective agonists. [Related pubchem assays: 1297, 1032 ]; type: functional
[23] = target: T2, Rac GTPase-activating protein 1 (Homo sapiens, UniProt Q9H0H5); assay: MgcRacGAP GTPase-activating activity inhibitors, confirmation, biochemical, ADP Hunter fluorescence, primary and confirmatory (AID 624330); type: functional
T2 sequence (Q9H0H5 whole entry): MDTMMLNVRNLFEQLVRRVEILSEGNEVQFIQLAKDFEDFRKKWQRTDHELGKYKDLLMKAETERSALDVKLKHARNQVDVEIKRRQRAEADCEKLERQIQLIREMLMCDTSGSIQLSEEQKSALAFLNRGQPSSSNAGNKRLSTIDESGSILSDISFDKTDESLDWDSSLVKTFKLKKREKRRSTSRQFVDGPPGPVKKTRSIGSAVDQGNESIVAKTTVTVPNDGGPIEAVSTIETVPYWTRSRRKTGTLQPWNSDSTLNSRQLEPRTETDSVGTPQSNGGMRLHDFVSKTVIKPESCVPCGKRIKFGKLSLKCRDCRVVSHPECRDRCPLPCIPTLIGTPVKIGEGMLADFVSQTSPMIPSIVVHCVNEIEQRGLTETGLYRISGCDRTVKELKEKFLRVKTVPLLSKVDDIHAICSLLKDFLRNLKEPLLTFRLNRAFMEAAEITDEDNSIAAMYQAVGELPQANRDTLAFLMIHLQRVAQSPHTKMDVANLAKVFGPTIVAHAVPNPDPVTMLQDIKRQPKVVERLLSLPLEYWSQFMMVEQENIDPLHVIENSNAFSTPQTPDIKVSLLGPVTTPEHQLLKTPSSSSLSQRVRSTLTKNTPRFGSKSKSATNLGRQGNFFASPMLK

CCNc1nc(Nc2ccc(C)c(Cl)c2)c2cnn(C)c2n1
CC50 [1]: > 40 µM (active)

COc1cc(NC(=O)c2cc([N+](=O)[O-])ccc2NC(=O)CN2CCN(c3ccccn3)CC2)cc(OC)c1
IC50 (H9c2): 10.8 µM (active)

COc1ccc(NC(=S)N2CCC(N(C)CCN3CCOCC3)CC2)cc1Cl
IC50 [2]: > 47.1 µM (inactive) | EC50 [3]: > 53 µM (inactive)

Cc1ccc(S(=O)(=O)NNc2ccccc2)cc1
IC50 [4]: > 80 µM (inactive) | AC50 [5]: 0.623 µM (active) | AC50 (Cytochrome P450 3A4): 28.2 µM (inconclusive)

CCOC(=O)c1c(NC(=O)COC(=O)c2ccc(O)cc2)sc(C(=O)N(C)C)c1C
IC50 (H9c2): > 79 µM (inactive)

CCCNC(=O)Cn1sc2nc(C)cc(C)c2c1=O
EC50 [6]: 3.08 µM (active) | EC50 [7]: 9.56 µM (active) | IC50 [4]: 45.5 µM (inactive) | IC50 [8]: 5.41 µM (active)

COc1ccc(/C=C(\NC(=O)c2ccc([N+](=O)[O-])cc2)C(=O)NCCN2CCOCC2)cc1
IC50 (Fatty acid synthase): 5.27 µM (active)

Cc1noc(NS(=O)(=O)c2ccc(N/C=C\C(=O)c3cccc4ccccc34)cc2)c1C
IC50 [2]: > 47.1 µM (inactive) | EC50 [3]: > 53 µM (inactive)

COc1cc(OC)c2ccc(=O)oc2c1C(CCN1CCOCC1)c1ccc2c(c1)OCO2 (stereo not drawn)
IC50 [2]: > 47.1 µM (inactive) | EC50 [3]: > 53 µM (inactive)

CNc1nnc(S)s1
IC50 [8]: 17.6 µM (active)

COc1ccc2sc(-c3ccc(SC)cc3)c(C#CC(C)(C)O)c2c1
AC50 [9]: 2.26 µM (active)

Cn1c(=O)c2c(nc(NCCCO)n2C/C=C/c2ccccc2)n(C)c1=O
IC50 (H9c2): > 79 µM (inactive)

COc1cc(/C=C(\C#N)c2nc3cc(C)ccc3[nH]2)c([N+](=O)[O-])cc1OC
IC50 (H9c2): > 79 µM (inactive)

Cc1cccc(CN2C(=O)/C(=C\c3ccc(C(=O)NCCCN4CCN(C)CC4)cc3)Oc3ccccc32)c1
EC50 [10]: 10.6 µM (active) | EC50 [11]: > 120 µM (not active) | EC50 [12]: > 120 µM (not active) | AC50 [9]: 3.6 µM (active)

C=CCn1c(-c2cc(OC)cc(OC)c2)n[nH]c1=S
IC50 [8]: 8.23 µM (active)

COc1ccc2cc3cc(C(=O)N4CC(C)CC(C)C4)oc3nc2c1 (stereo not drawn)
IC50 (Fatty acid synthase): 3.88 µM (active)

CSc1nc2ncc3c(n2n1)CC1c2ccccc2CCN1C3=O (stereo not drawn)
IC50 (H9c2): 15.1 µM (active)

CCC(CC)c1nnc(NC(=O)COc2ccc3c(c2)OCO3)s1
IC50 [8]: 53.2 µM (active)

O=C(c1ccccc1)c1nn(-c2ccc(Cl)cc2)cc1C(=O)c1cc2ccccc2oc1=O
IC50 [2]: > 47.1 µM (inactive) | EC50 [3]: > 53 µM (inactive)

Cc1cccc2sc(NC(=O)C3c4ccccc4Oc4ccccc43)nc12
CC50 [13]: 15.1 µM (active) | AC50 [9]: 2.83 µM (active)

O=C(COC(=O)CCc1nc(O)c2ccccc2n1)NCc1ccc(F)cc1
IC50 (H9c2): > 79 µM (inactive)

O=S(=O)(NCc1csc(-c2ccccc2)n1)c1ccc(Cl)s1
IC50 [4]: > 80 µM (inactive)

CCCCCCn1c(SCC(=O)OC)nc2c1c(=O)[nH]c(=O)n2C
IC50 [8]: 51.6 µM (active)

Nc1nc(O)nc(O)c1N=Cc1ccccc1
IC50 [4]: 63.8 µM (inactive)

CCN(CC(=O)NC1CCCCC1)S(=O)(=O)c1ccc(Cl)cc1
AC50 [9]: > 195 µM (inactive)

CCN1CCCC1CNC(=O)c1ccc2c(c1)NC(=O)/C(=C\c1ccccc1Cl)S2 (stereo not drawn)
IC50 [4]: > 80 µM (inactive)

O=C(CCSCCC(=O)NN=Cc1ccccc1)NN=Cc1ccccc1
IC50 [4]: 55.2 µM (inactive)

C[C@H](CO)N1C[C@H](C)[C@H](CN(C)Cc2ccc(C(=O)Nc3ccccc3N)cc2)Oc2ccc(NC(=O)C3CCCCC3)cc2CC1=O
AC50 [14]: 3.41 µM (active)

C[C@@H]1CN([C@@H](C)CO)C(=O)c2cccc(NC(=O)NC3CCCCC3)c2O[C@H]1CN(C)Cc1ccc(C(F)(F)F)cc1
AC50 [14]: 2.86 µM (active)

C[C@H]1CN([C@@H](C)CO)C(=O)c2cc(NC(=O)Nc3ccc4c(c3)OCO4)ccc2O[C@@H]1CN(C)Cc1ccc(Oc2ccccc2)cc1
AC50 [14]: 4.01 µM (active)

CC(C)NC(=O)Nc1ccc2c(c1)CC(=O)N([C@H](C)CO)C[C@H](C)[C@H](CN(C)Cc1ccc(C(=O)Nc3ccccc3N)cc1)O2
AC50 [14]: 4 µM (active)

COc1ccc(S(=O)(=O)Nc2ccc3c(c2)CC(=O)N([C@H](C)CO)C[C@@H](C)[C@H](CN(C)Cc2ccc4c(c2)OCO4)O3)cc1
AC50 [14]: 5.51 µM (active)

C[C@H](CO)N1C[C@H](C)[C@H](CN(C)Cc2ccc3c(c2)OCO3)Oc2ccc(NC(=O)NC3CCCCC3)cc2C1=O
AC50 [14]: 1.82 µM (active)

C[C@H]1CN([C@@H](C)CO)C(=O)c2cccc(NC(=O)Nc3ccccc3)c2O[C@@H]1CN(C)Cc1ccc(C(=O)Nc2ccccc2N)cc1
AC50 [14]: 1.54 µM (active)

C[C@H](CO)N1C[C@H](C)[C@H](CN(C)Cc2ccc(C(=O)Nc3ccccc3N)cc2)Oc2c(NC(=O)Nc3ccc4c(c3)OCO4)cccc2C1=O
AC50 [14]: 5.97 µM (active)

CCN1C(=O)C(C)S/C1=N\S(=O)(=O)c1ccc(F)cc1 (stereo not drawn)
IC50 [15]: 4.37 µM (not active)

Cc1ccc(NC(=S)N/N=C/c2c(Cl)cccc2Cl)c(C)c1
EC50 (BJ [16]): 2.66 µM (active) | EC50 (BJ [17]): 3.48 µM (inconclusive) | EC50 (BJ [18]): 3.99 µM (inconclusive) | EC50 [19]: 2.58 µM (active) | AC50 [9]: 0.368 µM (active)

Cc1ccc(Cl)cc1-c1ccc(/C=N/c2ccc(N3CCOCC3)cc2)o1
EC50 [20]: 27.9 µM (inactive) | EC50 [21]: > 79.4 µM (not active) | EC50 [22]: 19.4 µM (not active) | IC50 [23]: 11.2 µM (active)
